From patent US20010047099A1, “4-aminopicolinates and their use as herbicides” (priority 2000, published 2001)

Experiments:
[1] = system: yellow nutsedge (Cyperus esculentus); assay: Postemergence herbicidal activity; assay type: in vivo; conditions: Table 3; weeds in rice; rate 250 ppm
How it was run: (§1)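 Plants are raised from seed under greenhouse conditions until the first or second true leaf appears. They are then sprayed with test solutions at known concentrations, where 1 ppm corresponds to roughly 1 g/Ha. Two weeks later, injury is rated by eye from 0 to 100%.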

[2] = system: wild buckwheat (Polygonum convolvulus); assay: Postemergence herbicidal activity; assay type: in vivo; conditions: Fallopia convolvulus, post-emergence, 336 h, Table 1, visual, after 2 weeks, read-out: Post-emergent % Control POLCO; for pest or weed control at 125 ppm: rate 125 ppm
How it was run: as §1

[3] = system: cocklebur (Xanthium strumarium); assay: Postemergence herbicidal activity; assay type: in vivo; conditions: for pest or weed control at 125 ppm: rate 125 ppm; for Post-emergent Evaluation - % control XANST: Table 4
How it was run: as §1

[4] = system: barnyardgrass (Echinochloa crus-galli); assay: Postemergence herbicidal activity; assay type: in vivo; conditions: Table 3; weeds in rice; rate 250 ppm
How it was run: as §1

[5] = system: chickweed (Stellaria media); assay: Postemergence herbicidal activity; assay type: in vivo; conditions: Stellaria media, post-emergence, 336 h, Table 1, visual, after 2 weeks, read-out: Post-emergent % Control STEME; for pest or weed control at 125 ppm: rate 125 ppm
How it was run: as §1

rice (Oryza sativa) = assay: Postemergence herbicidal activity, selectivity to rice; assay type: in vivo; conditions: Table 3; crop (rice); rate 250 ppm
Method: (§2) Seeds of the desired test plant species were planted in Grace-Sierra MetroMix® 306 planting mixture, which typically has a pH of 6.0 to 6.8 and an organic matter content of about 30 percent, in plastic pots with a surface area of 64 square centimeters. When required to ensure good germination and healthy plants, a fungicide treatment and/or other chemical or physical treatment was applied. The plants were grown for 7-21 days in a greenhouse with an approximate 15 hr photoperiod which was maintained at about 23-29° C. during the day and 22-28° C. during the night. Nutrients and water were added on a regular basis and supplemental lighting was provided with overhead metal halide 1000-Watt lamps as necessary. The plants were employed for testing when they reached the first or second true leaf stage.
(§3) A weighed amount, determined by the highest rate to be tested, of each test compound was placed in a 20 mL glass vial and was dissolved in 4 mL of a 97:3 v/v (volume/volume) mixture of acetone and dimethyl sulfoxide (DMSO) to obtain concentrated stock solutions. […] The concentrated stock solutions obtained were diluted with an aqueous mixture containing acetone, water, isopropyl alcohol, DMSO, Atplus 411F crop oil concentrate, and Triton X-155 surfactant in a 48.5:39:10:1.5:1.0:0.02 v/v ratio to obtain spray solutions of known concentration. The solutions containing the highest concentration to be tested were prepared by diluting 2 mL aliquots of the stock solution with 13 mL of the mixture and lower concentrations were prepared by serial dilution of the stock solution. […]
(§4) The treated plants and control plants were placed in a greenhouse as described above and watered by sub-irrigation to prevent wash-off of the test compounds. After 2 weeks the condition of the test plants as compared with that of the untreated plants was determined visually and scored on a scale of 0 to 100 percent where 0 corresponds to no injury and 100 corresponds to complete kill.

[6] = system: morningglory (Ipomoea hederacea); assay: Preemergence herbicidal activity; assay type: in vivo; conditions: Ipomoea, 504 h, Table 6 (headed Post-emergent; text: preemergence), after 3 weeks, read-out: % Control IPOHE; for pest or weed control at 560 ppm: rate 560 ppm
How it was run: (§5)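 Test compounds in acetone/DMSO were diluted in water with 0.1% Tween 155 and sprayed onto the soil surface of freshly seeded pots (loam/sand 70:30, pH about 8.1). Plants grew in a greenhouse at about 23-29° C day under a 15 h photoperiod. Injury was scored visually after 3 weeks versus untreated plants, 0-100%.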

[7] = system: velvetleaf (Abutilon theophrasti); assay: Preemergence herbicidal activity; assay type: in vivo; conditions: Abutilon theophrasti, 504 h, Table 6 (headed Post-emergent; text: preemergence), after 3 weeks, read-out: % Control ABUTH; for pest or weed control at 560 ppm: rate 560 ppm
How it was run: as §5

[8] = system: pigweed (Amaranthus retroflexus); assay: Preemergence herbicidal activity; assay type: in vivo; conditions: Amaranthus retroflexus, 504 h, Table 6 (headed Post-emergent; text: preemergence), after 3 weeks, read-out: % Control AMARE; for pest or weed control at 560 ppm: rate 560 ppm
How it was run: as §5

[9] = system: pigweed (Amaranthus retroflexus); assay: Postemergence herbicidal activity; assay type: in vivo; conditions: Table 4; rate 250 ppm
How it was run: as §1

[10] = system: velvetleaf (Abutillon theophrasti); assay: Postemergence herbicidal activity; assay type: in vivo; conditions: Table 4; rate 250 ppm
How it was run: as §1

corn (Zea mays) = assay: Postemergence herbicidal activity, selectivity to corn; assay type: in vivo; conditions: Table 4; crop (corn); rate 250 ppm
Method: as §2, §3, §4

[11] = system: White Clover (Trifolium repens); assay: Range & Pasture Crop Testing (postemergence track sprayer); assay type: in vivo; conditions: Table 10
Method: (§6) By applying the well-accepted probit analysis as described by J. Berkson in Journal of the […], 48, 565 (1953) and by D. Finney in “Probit Analysis” Cambridge University Press (1952), the above data can be used to calculate GR50 and GR80 values, which are defined as growth reduction factors that correspond to the effective dose of herbicide required to kill or control 50 percent or 80 percent, respectively, of a target plant.
(§7) Rates are calculated based upon 5 doses being applied. The high rate (X), followed by serial dilutions of 1/2×, 1/4×, 1/8× and 1/16×. Compound requirements are based upon the 187 L/ha carrier volume, specifications of the delivery system (Mandel track sprayer) and generating 24 mL of technical spray material to allow for the dilutions and overage in the sprayer. [formula]
(§8) All technical materials were formulated in 97:3 (acetone:DMSO) with 0.25% X-77. The total volume of solvent is maintained at less than 7%. An overhead Mandel track sprayer calibrated to deliver 187 L/ha was used for all treatment applications (postemergence). Picloram was included as a comparison treatment.
(§9) Solutions were applied with a mechanized track-sprayer at the following settings:
(§10) Spray height: 17 inches above top of plants
(§11) This provides an application volume of 187 L/ha.
(§12) Percent weed control (burn down) was evaluated 3 weeks after treatment. Visual control on a 0-100 linear scale was used, with 0 representing no control and 100 representing total control. Burn down ratings were taken for annual and perennial weed species.

[12] = system: Canada thistle (Cirsium arvense); assay: as above; assay type: in vivo; conditions: Table 10; clover pasture; postemergence
Method: as §6, §7, §8, §9, §10, §11, §12

[13] = system: field bindweed (Convolvulus arvensis); assay: as above; assay type: in vivo; conditions: Table 10; clover pasture; postemergence
Method: as §6, §7, §8, §9, §10, §11, §12

[14] = Xanthium strumarium, post-emergence, 336 h, Table 1, visual, after 2 weeks, read-out: Post-emergent % Control XANST

Row | SMILES | pest or weed control at 125 ppm [2] [%] | pest or weed control at 125 ppm [3, 14] [%] | pest or weed control at 125 ppm [5] [%] | pest or weed control at 560 ppm [6] [%] | pest or weed control at 560 ppm [7] [%] | pest or weed control at 560 ppm [8] [%] | melting point | Post-emergent Evaluation - % control XANST ([3]; rate 250 ppm) [%] | Post-emergent Evaluation - % control AMARE [9] [%] | Post-emergent Evaluation - % control ABUTH [10] [%] | Post-emergent Evaluation - % control ZEAMX (corn (Zea mays)) [%] | further results
1 | CCNc1cc(Cl)nc(C(=O)O)c1Cl [Compound 27, 4-N-ethylamino-3,6-dichloropyridine-2-carboxylic acid] | 90 | 85 | 100 | 100 | 100 | 100 | 136 to 137 °C |  |  |  |  | post emergent evaluation - % control CYPES [1]: 50%; post emergent evaluation - % control ECHCG [4]: 70%; post emergent evaluation - % control ORYZA (rice (Oryza sativa)): 40%
2 | Nc1c(Cl)c(C(=O)O)nc(Cl)c1Br [Compound 20, 4-Amino-3,6-dichloro-5-bromopyridine-2-carboxylic acid] |  |  |  | 100 | 100 | 100 | 201 to 202 °C | 85 | 90 | 70 | 10 | pest or weed control at 250 ppm ([2]; rate 250 ppm): 50%; pest or weed control at 250 ppm ([3]; Xanthium strumarium, post-emergence, 336 h, Table 1, rate 250 ppm, visual, after 2 weeks, read-out: Post-emergent % Control XANST): 85%; pest or weed control at 250 ppm ([5]; rate 250 ppm): 90%
3 | Nc1c(F)c(C(=O)O)nc(Cl)c1Cl [Compound 43, 4-Amino-5,6-dichloro-3-fluoropyridine-2-carboxylic acid] | 60 | 90 | 85 |  |  |  | 208 °C (dec.) | 85 | 90 | 70 | 0 | pest or weed control at 140 ppm ([6]; rate 140 ppm): 70%; pest or weed control at 140 ppm ([7]; rate 140 ppm): 80%; pest or weed control at 140 ppm ([8]; rate 140 ppm): 30%
4 | CCCOC(=O)c1nc(Cl)cc(N)c1Cl [Compound 5, n-propyl 4-amino-3,6-dichloropyridine-2-carboxylate] | 100 | 100 | 100 |  |  |  | 94 to 95 °C |  |  |  |  | GR20 TRFRE [11]: <17.5 g/ha; GR80 CIRAR [12]: <17.5 g/ha; GR80 CONAR [13]: 140.1 g/ha; pest or weed control at 280 ppm ([6]; rate 280 ppm): 100%; pest or weed control at 280 ppm ([7]; rate 280 ppm): 100%; pest or weed control at 280 ppm ([8]; rate 280 ppm): 100%
